In patent US8633315B2, “Substituted hydroxyethyl amine compounds as beta-secretase modulators and methods of use” (Amgen Inc., priority 2007, dated 2014):

Key:
[1] = test system: Cells stably expressing Amyloid Precursor Protein (APP); test: In vitro BACE cell-based assay (HEK cell assay): Aβ40 in conditioned medium by sandwich ELISA; conditions: Aβ40 in conditioned medium after 24 h incubation
Outline: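 APP-stably-expressing cells were grown 24 h in DMEM/10% FBS, then treated for 24 h with 10-point doses starting at 100 μM or 10 μM, at 0.1% DMSO final. Aβ40 in conditioned medium was measured by sandwich ELISA (pAb40 capture, biotinylated 6E10 detection, europium time-resolved fluorescence); IC50 from percent inhibition.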

BACE1 = BACE1 (Homo sapiens, UniProt P56817); test: In vitro enzymatic BACE FRET (fluorescence resonance energy transfer) assay; type: biochemical
Sequence of BACE1 (P56817 46-501, species assumed): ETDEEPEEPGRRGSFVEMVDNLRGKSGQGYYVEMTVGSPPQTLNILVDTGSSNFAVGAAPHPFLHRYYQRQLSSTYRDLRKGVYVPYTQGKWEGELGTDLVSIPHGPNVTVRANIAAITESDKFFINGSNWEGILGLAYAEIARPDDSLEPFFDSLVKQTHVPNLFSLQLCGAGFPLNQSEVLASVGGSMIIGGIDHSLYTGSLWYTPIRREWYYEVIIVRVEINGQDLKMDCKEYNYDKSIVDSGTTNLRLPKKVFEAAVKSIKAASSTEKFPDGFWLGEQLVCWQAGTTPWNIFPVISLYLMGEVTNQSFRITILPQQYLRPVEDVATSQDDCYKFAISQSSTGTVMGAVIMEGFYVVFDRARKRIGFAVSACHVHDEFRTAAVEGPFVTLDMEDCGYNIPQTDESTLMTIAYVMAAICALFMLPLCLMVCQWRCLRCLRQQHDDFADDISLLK
Outline: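 Cleavage of a quenched peptide FRET substrate (50 nM) in 0.05 M acetate pH 4.2, 10% DMSO, 100 uM genapol, 1 h incubation. Reaction stopped by Tris neutralization; fluorescence read at excitation 488 nm / […].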

| SMILES | IC50 ([1]; Homo sapiens, HEK293, 24 h) [nM] | IC50 (BACE1) [nM] | IC50 [1] [nM] | IC50 ([1]; Homo sapiens, HEK293) [nM] |
| --- | --- | --- | --- | --- |
| C=CC[C@H](NC(=O)c1cccc2c1OCO2)[C@H](O)CN[C@H]1CC2(CCC2)Oc2ncc(CC(C)(C)C)cc21 [Example 103, N-((1S)-1-((1R)-2-(((4′S)-6′-(2,2-dimethylpropyl)-3′,4′-dihydrospiro[cyclobutane-1,2′-pyrano[2,3-b]pyridin]-4′-yl)amino)-1-hydroxyethyl)-3-buten-1-yl)-1,3-benzodioxole-4-carboxamide] | 2540 | 216 | – | – |
| C=CC[C@H](NC(=O)c1ccc2c(c1)OC(F)(F)O2)[C@H](O)CN[C@H]1CC2(CCC2)Oc2ncc(CC(C)(C)C)cc21 [Example 104, N-((1S)-1-((1R)-2-(((4′S)-6′-(2,2-dimethylpropyl)-3′,4′-dihydrospiro[cyclobutane-1,2′-pyrano[2,3-b]pyridin]-4′-yl)amino)-1-hydroxyethyl)-3-buten-1-yl)-2,2-difluoro-1,3-benzodioxole-5-carboxamide] | 2360 | 154 | – | – |
| C=CC[C@H](NC(=O)OCc1cncs1)[C@H](O)CN[C@H]1CC2(CCC2)Oc2ncc(CC(C)(C)C)cc21 [Example 105, 1,3-thiazol-5-ylmethyl ((1S)-1-((1R)-2-(((4′S)-6′-(2,2-dimethylpropyl)-3′,4′-dihydrospiro[cyclobutane-1,2′-pyrano[2,3-b]pyridin]-4′-yl)amino)-1-hydroxyethyl)-3-buten-1-yl)carbamate] | 1160 | 396 | – | – |
| CC=CC[C@H](NC(C)=O)[C@H](O)CN[C@H]1CC2(CC(F)C2)Oc2ncc(CC(C)(C)C)cc21 (stereo partly drawn) [Example 109, N-((1S)-1-((1R)-2-(((1s,3S,4′S)-6′-(2,2-dimethylpropyl)-3-fluoro-3′,4′-dihydrospiro[cyclobutane-1,2′-pyrano[2,3-b]pyridin]-4′-yl)amino)-1-hydroxyethyl)-3-penten-1-yl)acetamide] | – | 37 | 62 | – |
| CC=CC[C@H](NC(=O)COC)[C@H](O)CN[C@H]1CC2(CC(F)C2)Oc2ncc(CC(C)(C)C)cc21 (stereo partly drawn) [Example 110, N-((1S)-1-((1R)-2-(((1s,3S,4′S)-6′-(2,2-dimethylpropyl)-3-fluoro-3′,4′-dihydrospiro[cyclobutane-1,2′-pyrano[2,3-b]pyridin]-4′-yl)amino)-1-hydroxyethyl)-3-penten-1-yl)-2-(methyloxy)acetamide] | – | 40 | 293 | – |
| C=CCC(NC(=O)CF)C(O)CNC1CC2(CC(O)C2)Oc2ncc(CC(C)(C)C)cc21 [Example 111, N-((1S)-1-((1R)-2-(((1s,3S,4′S)-6′-(2,2-dimethylpropyl)-3-hydroxy-3′,4′-dihydrospiro[cyclobutane-1,2′-pyrano[2,3-b]pyridin]-4′-yl)amino)-1-hydroxyethyl)-3-buten-1-yl)-2-fluoroacetamide] | – | 20 | – | 65 |
| C=CCC(NC(=O)C1CCC(=O)O1)C(O)CNC1CC2(CC(O)C2)Oc2ncc(CC(C)(C)C)cc21 [Example 112, (2S)-N-((1S)-1-((1R)-2-(((1s,3S,4′S)-6′-(2,2-dimethylpropyl)-3-hydroxy-3′,4′-dihydrospiro[cyclobutane-1,2′-pyrano[2,3-b]pyridin]-4′-yl)amino)-1-hydroxyethyl)-3-buten-1-yl)-5-oxotetrahydro-2-furancarboxamide] | 28 | 2 | – | – |
| C=CCC(NC(C)=O)C(O)CNC1CC2(CC(O)C2)Oc2ccc(CC(C)(C)C)cc21 [Example 115, N-((1S)-1-((1R)-2-(((2s,3′S,4S)-6-(2,2-dimethylpropyl)-3′-hydroxy-3,4-dihydrospiro[chromene-2,1′-cyclobutan]-4-yl)amino)-1-hydroxyethyl)-3-buten-1-yl)acetamide] | – | 335 | 513 | – |
| C=CCC(NC(C)=O)C(O)CNC1CC2(CC(O)C2)Oc2ccc(CC(C)(C)C)cc21 [Example 116, N-((1S)-1-((1R)-2-(((2r,3′R,4S)-6-(2,2-dimethylpropyl)-3′-hydroxy-3,4-dihydrospiro[chromene-2,1′-cyclobutan]-4-yl)amino)-1-hydroxyethyl)-3-buten-1-yl)acetamide] | – | 15 | 15 | – |
| C=CCC(NC(C)=O)C(O)CNC1CC2(CC(O)C2)Oc2ccc(Br)cc21 [Example 117, N-((1S)-1-((1R)-2-(((2r,3′R,4S)-6-bromo-3′-hydroxy-3,4-dihydrospiro[chromene-2,1′-cyclobutan]-4-yl)amino)-1-hydroxyethyl)-3-buten-1-yl)acetamide] | – | 419 | 1290 | – |
| C=CCC(NC(C)=O)C(O)CNC1CC2(CC(O)C2)Oc2ccc(Br)cc21 [Example 118, N-((1S)-1-((1R)-2-(((2s,3′S,4S)-6-bromo-3′-hydroxy-3,4-dihydrospiro[chromene-2,1′-cyclobutan]-4-yl)amino)-1-hydroxyethyl)-3-buten-1-yl)acetamide] | – | 6060 | ≥ 10000 | – |
| C=CCC(NC(=O)C1CCC(=O)O1)C(O)CNC1CC2(CCC2)Oc2cnc(C(F)(F)F)cc21 [Example 119, (S)-N-((2R,3S)-1-((S)-2,2-spirocyclobutyl-6-(trifluoromethyl)-3,4-dihydro-2H-pyrano[2,3-c]pyridin-4-ylamino)-2-hydroxyhex-5-en-3-yl)-5-oxo-tetrahydrofuran-2-carboxamide] | ≥ 10000 | 9300 | – | – |
| C=CC[C@H](NC(C)=O)[C@H](O)CN[C@H]1CC2(CCC2)Oc2ncc(CC(C)(F)F)cc21 [Example 120, N-((1S)-1-((1R)-2-(((4′S)-6′-(2,2-difluoropropyl)-3′,4′-dihydrospiro[cyclobutane-1,2′-pyrano[2,3-b]pyridin]-4′-yl)amino)-1-hydroxyethyl)-3-buten-1-yl)acetamide] | 64 | 194 | – | – |
| C=CC[C@H](NC(=O)COC)[C@H](O)CN[C@H]1CC2(CCC2)Oc2ncc(CC(C)(F)F)cc21 [Example 121, N-((1S)-1-((1R)-2-(((4′S)-6′-(2,2-difluoropropyl)-3′,4′-dihydrospiro[cyclobutane-1,2′-pyrano[2,3-b]pyridin]-4′-yl)amino)-1-hydroxyethyl)-3-buten-1-yl)-2-(methyloxy)acetamide] | 226 | 225 | – | – |
| C=CC[C@H](NC(C)=O)[C@H](O)CN[C@H]1CC2(CCC2)Oc2ncc(C[C@@H](C)C(F)(F)F)cc21 [Example 125, N-((1S)-1-((1R)-1-hydroxy-2-(((4′S)-6′-((2R)-3,3,3-trifluoro-2-methylpropyl)-3′,4′-dihydrospiro[cyclobutane-1,2′-pyrano[2,3-b]pyridin]-4′-yl)amino)ethyl)-3-buten-1-yl)acetamide] | 122 | 199 | – | – |
| C=CC[C@H](NC(=O)COC)[C@H](O)CN[C@H]1CC2(CCC2)Oc2nc(F)c(CC(C)C)cc21 [Example 126, N-((1S)-1-((1R)-2-(((4′S)-7′-fluoro-6′-(2-methylpropyl)-3′,4′-dihydrospiro[cyclobutane-1,2′-pyrano[2,3-b]pyridin]-4′-yl)amino)-1-hydroxyethyl)-3-buten-1-yl)-2-(methyloxy)acetamide] | 211 | 316 | – | – |
| C=CC[C@H](NC(=O)[C@@H](C)OC)[C@H](O)CN[C@H]1CC2(CCC2)Oc2nc(F)c(CC(C)C)cc21 [Example 127, (2R)-N-((1S)-1-((1R)-2-(((4′S)-7′-fluoro-6′-(2-methylpropyl)-3′,4′-dihydrospiro[cyclobutane-1,2′-pyrano[2,3-b]pyridin]-4′-yl)amino)-1-hydroxyethyl)-3-buten-1-yl)-2-(methyloxy)propanamide] | 207 | 445 | – | – |
